Key:
Assay type in all cases: in vivo
[1] = test system: southern armyworm (Spodopetra eridania Cramer); assay: Mite/insect screen, SAW; conditions: percent mortality, SAW; for mortality at 200 ppm / mortality at 400 ppm: Spodoptera eridania, read-out: SAW RESULTS %; for mortality at 200 ppm: SM & MA RATE 200 PPM
Method in brief: (§1)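 Compounds dissolved in acetone/alcohol (50:50) with TOXIMUL R and S emulsifiers, diluted in water to test concentrations, and sprayed to runoff on both leaf surfaces at 10 psi, then dried 1 h. For armyworm, excised treated leaves were offered to larvae; percent mortality scored after standard exposure periods.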

[2] = test system: Venturia inaequalis (apple scab); assay: Test 1 greenhouse foliar spray screen, apple scab on apple seedling; conditions: disease control rating, foliar spray on apple seedling, 400 ppm (+++ at 100 ppm)
[3] = test system: melon aphids (Aphis gossypii Glover); assay: Mite/insect screen, MA; conditions: percent mortality, SAW; for mortality at 200 ppm / mortality at 400 ppm: Aphis gossypii, read-out: MA RESULTS %; for mortality at 200 ppm: SM & MA RATE 200 PPM
Method in brief: as §1

[4] = test system: Septoria tritici (leaf blotch); assay: Test 1 greenhouse foliar spray screen, leaf blotch on wheat; conditions: disease control rating, foliar spray on wheat, 400 ppm (+++ at 100 ppm)
[5] = test system: Puccinia recondita tritici (leaf rust); assay: Test 1 greenhouse foliar spray screen, leaf rust on wheat; conditions: disease control rating, foliar spray on wheat, 400 ppm (+++ at 100 ppm)
[6] = test system: Pyricularia oryzae (rice blast); assay: whole plant or invertebrate; conditions: disease control rating, foliar spray on rice, 400 ppm (+++ at 100 ppm)
[7] = test system: Twospotted spider mites (Tetranychus urticae Koch); assay: Mite/insect screen, SM; conditions: percent mortality, SAW; for mortality at 200 ppm / mortality at 400 ppm: Tetranychus urticae, read-out: SM RESULTS %; for mortality at 200 ppm: SM & MA RATE 200 PPM
Method in brief: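 Compounds dissolved in 50:50 acetone/alcohol containing sulfonate/nonionic emulsifier blends, then diluted with water to the indicated concentrations. Leaves sprayed on both surfaces to runoff at 10 psi and dried one hour. Percent mortality scored after standard exposure periods.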

corn rootworm = assay: Mite/insect screen, CRW; conditions: percent mortality; for mortality at 12 ppm: CRW RATE 12.00 PPM; for mortality at 12 ppm / mortality at 24 ppm: read-out: CRW RESULTS %
Method in brief: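 Compounds dissolved in 50:50 acetone/alcohol with TOXIMUL R and S emulsifiers (23 and 13 g/L), then diluted in water to the stated test concentrations. Percent mortality of corn rootworm scored after standard exposure periods.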

[8] = test system: Cercospora beticola (leaf spot); assay: Test 1 greenhouse foliar spray screen, leaf spot on sugar beet; conditions: disease control rating, foliar spray on sugar beet, 400 ppm (+++ at 100 ppm)
[9] = test system: Pseudoperonospora cubensis (downy mildew); assay: Test 1 greenhouse foliar spray screen, downy mildew on squash; conditions: disease control rating, foliar spray on squash, 400 ppm (+++ at 100 ppm)
[10] = test system: Erysiphe graminis tritici (powdery mildew); assay: Test 1 greenhouse foliar spray screen, powdery mildew on wheat; conditions: disease control rating, foliar spray on wheat, 400 ppm (+++ at 100 ppm)
[11] = test system: Botrytis cinerea (gray mold); assay: Test 1 greenhouse foliar spray screen, gray mold on grape berries; conditions: disease control rating, spray on grape berries, 400 ppm (+++ at 100 ppm)

Compound | mortality at 200 ppm [1] | APPL SCAB [2] | mortality at 200 ppm [3] | LEAF BLOT [4] | LEAF RUST [5] | RICE BLAST [6] | mortality at 200 ppm [7] | mortality at 12 ppm (corn rootworm) | LEAF SPOT [8] | DOWN MDEW [9] | POWD MDEW [10] | GRAY MOLD [11] | mortality at 400 ppm ([1]; SM & MA RATE 400 PPM) | SAW RESULTS % ([1]; SM & MA RATE 400 PPM) | mortality at 400 ppm ([3]; SM & MA RATE 400 PPM) | MA RESULTS % ([3]; SM & MA RATE 400 PPM) | mortality at 400 ppm ([7]; SM & MA RATE 400 PPM) | SM RESULTS % ([7]; SM & MA RATE 400 PPM) | CRW RESULTS % (corn rootworm; CRW RATE 24.00 PPM) | mortality at 24 ppm (corn rootworm; CRW RATE 24.00 PPM)
CC(CNc1ccnc2ccccc12)(c1ccccc1)c1ccccc1 [Example 34, N-(2,2-diphenylpropyl)-4-quinolinamine] | 0% | - (0-19% control at 400 ppm) | 0% | - (0-19% control at 400 ppm) | ++ (90-100% control at 400 ppm) | + (20-89% control at 400 ppm) | 0% | 0% | + (20-89% control at 400 ppm) | +++ (90-100% control at 100 ppm) | + (20-89% control at 400 ppm) | - (0-19% control at 400 ppm) |  |  |  |  |  |  |  | 
Fc1ccc(CCNc2ccnc3ccccc23)cc1 [Example 35, N-[2-(4-fluorophenyl)ethyl]-4-quinolinamine] | 0% | - (0-19% control at 400 ppm) | 0% | - (0-19% control at 400 ppm) | + (20-89% control at 400 ppm) | + (20-89% control at 400 ppm) | 0% | 0% | +++ (90-100% control at 100 ppm) | +++ (90-100% control at 100 ppm) | + (20-89% control at 400 ppm) | - (0-19% control at 400 ppm) |  |  |  |  |  |  |  | 
COc1ccc(CCNc2ccnc3c(F)cccc23)cc1 [Example 36, 8-fluoro-N-[2-(4-methoxyphenyl)ethyl]-4-quinolinamine] | 0% | - (0-19% control at 400 ppm) | 0% | +++ (90-100% control at 100 ppm) | +++ (90-100% control at 100 ppm) | +++ (90-100% control at 100 ppm) | 0% | 0% | +++ (90-100% control at 100 ppm) | +++ (90-100% control at 100 ppm) | + (20-89% control at 400 ppm) | - (0-19% control at 400 ppm) | 0% | 0% | 0% | 0% | 0% | 0% | 0% | 0%
COc1ccc(CCNc2ccnc3c(F)cccc23)cc1OC [Example 38, N-[2-(3,4-dimethoxyphenyl)ethyl]-8-fluoro-4-quinolinamine] | 0% | - (0-19% control at 400 ppm) | 0% | - (0-19% control at 400 ppm) | ++ (90-100% control at 400 ppm) | - (0-19% control at 400 ppm) | 0% | 0% | + (20-89% control at 400 ppm) | +++ (90-100% control at 100 ppm) | + (20-89% control at 400 ppm) | - (0-19% control at 400 ppm) | 0% |  | 0% |  | 0% |  |  | 0%
Fc1cc(F)c2nccc(NCCc3ccc(Cl)cc3)c2c1 [Example 41, N-[2-(4-chlorophenyl)ethyl]-6,8-difluoro-4-quinolinamine] | 80% | - (0-19% control at 400 ppm) | 0% | + (20-89% control at 400 ppm) | +++ (90-100% control at 100 ppm) | ++ (90-100% control at 400 ppm) | 0% | 0% | +++ (90-100% control at 100 ppm) | ++ (90-100% control at 400 ppm) | + (20-89% control at 400 ppm) | - (0-19% control at 400 ppm) | 40% |  | 0% |  | 0% |  |  | 0%
COc1ccc(CCNc2ccnc3cc(C(F)(F)F)ccc23)cc1 [Example 42, N-[2-(4-methoxyphenyl)ethyl]-7-(trifluoromethyl)-4-quinolinamine] | 0% | - (0-19% control at 400 ppm) | 0% | - (0-19% control at 400 ppm) | ++ (90-100% control at 400 ppm) | + (20-89% control at 400 ppm) | 0% | 0% | +++ (90-100% control at 100 ppm) | +++ (90-100% control at 100 ppm) | +++ (90-100% control at 100 ppm) | - (0-19% control at 400 ppm) | 0% |  | 0% |  | 0% |  |  | 0%
COc1cccc(CCNc2ccnc3cc(Cl)ccc23)c1 [Example 43, 7-chloro-N-[2-(3-methoxyphenyl)ethyl]-4-quinolinamine] | 0% | - (0-19% control at 400 ppm) | 0% | - (0-19% control at 400 ppm) | - (0-19% control at 400 ppm) | + (20-89% control at 400 ppm) | 0% | 0% | +++ (90-100% control at 100 ppm) | ++ (90-100% control at 400 ppm) | + (20-89% control at 400 ppm) | - (0-19% control at 400 ppm) | 0% |  | 0% |  | 0% |  |  | 0%
Clc1ccc(CCNc2ccnc3cc(Cl)ccc23)c(Cl)c1 [Example 44, 7-chloro-N-[2-(2,4-dichlorophenyl)ethyl]-4-quinolinamine] | 0% | + (20-89% control at 400 ppm) | 0% | - (0-19% control at 400 ppm) | + (20-89% control at 400 ppm) | + (20-89% control at 400 ppm) | 0% | 0% | +++ (90-100% control at 100 ppm) | +++ (90-100% control at 100 ppm) | +++ (90-100% control at 100 ppm) | - (0-19% control at 400 ppm) | 0% |  | 0% |  | 0% |  |  | 0%
COc1cc(CCNc2ccnc3cc(Cl)ccc23)cc(OC)c1 [Example 45, 7-chloro-N-[2-(3,5-dimethoxyphenyl)ethyl]-4-quinolinamine] | 0% | - (0-19% control at 400 ppm) | 0% | - (0-19% control at 400 ppm) | + (20-89% control at 400 ppm) | ++ (90-100% control at 400 ppm) | 0% | 0% | +++ (90-100% control at 100 ppm) | ++ (90-100% control at 400 ppm) | + (20-89% control at 400 ppm) | - (0-19% control at 400 ppm) | 0% |  | 0% |  | 0% |  |  | 0%
COc1ccc(CCNc2ccnc3ccc(C)cc23)cc1 [Example 46, N-[2-(4-methoxyphenyl)ethyl]-6-methyl-4-quinolinamine] | 0% | + (20-89% control at 400 ppm) | 0% | + (20-89% control at 400 ppm) | + (20-89% control at 400 ppm) | ++ (90-100% control at 400 ppm) | 0% | 0% | +++ (90-100% control at 100 ppm) | ++ (90-100% control at 400 ppm) | + (20-89% control at 400 ppm) | - (0-19% control at 400 ppm) | 0% |  | 0% |  | 0% |  |  | 0%

Reference: patent publication EP0326331B1, “Substituted quinolines and cinnolines” (Dow AgroSciences LLC, priority 1988, dated 1989)
